In the experiment the target is T1, CDK4/cyclin D3 (Homo sapiens, UniProt P11802).
T1 construct: made in house; host or cells: insect cells (baculovirus co-infection)
The experiment can be described thus: Inhibition of CDK4/Cyclin D retinoblastoma kinase activity. Type of experiment: biochemical. The settings on record: for inhibition at 0.1 µM / % Inhib CDK4/D @ 0.1 μM: test compound at 0.1 μM; for inhibition at 0.1 µM: read-out: % Inhib CDK4/D @ 0.1 μM; for inhibition at 1 µM / % Inhib CDK4/D @ 1 μM: test compound at 1 μM (head line shifted: 'mM' printed beside 'Structure'); for inhibition at 1 µM: read-out: % Inhib CDK4/D @ 1 μM; for inhibition at 0.03 µM / % Inhib CDK4/D @ 0.03: test compound at 0.03 (unit cell empty, head line shifted; μM); for inhibition at 0.03 µM: read-out: % Inhib CDK4/D @ 0.03. The procedure:
Cyclin-dependent kinase activity was measured by quantifying the enzyme-catalyzed, time-dependent incorporation of radioactive phosphate from [^32P]ATP or [^33P]ATP into a protein substrate. Unless noted otherwise, assays were performed in 96-well plates in a total volume of 50 μL, in the presence of 10 mM HEPES (N-[2-hydroxyethyl]piperazine-N′-[2-ethanesulfonic acid]) (pH 7.4), 10 mM MgCl2, 25 μM adenosine triphosphate (ATP), 1 mg/mL ovalbumin, 5 μg/mL leupeptin, 1 mM dithiothreitol, 10 mM β-glycerophosphate, 0.1 mM sodium vanadate, 1 mM sodium fluoride, 2.5 mM ethylene glycol-bis(β-aminoethyl ether)-N,N,N′N′-tetraacetic acid (EGTA), 2% (v/v) dimethylsulfoxide, and 0.03-0.4 μCi [^32/33P]ATP per reaction. Reactions were initiated with enzyme, incubated at 30° C., and terminated after 20 minutes by the addition of ethylenediaminetetraacetic acid (EDTA) to 250 mM. The phosphorylated substrate was then captured on a nitrocellulose or phosphocellulose membrane using a 96-well filtration manifold, and unincorporated radioactivity was removed by repeated washing with 0.85% phosphoric acid. Radioactivity was quantified by exposing the dried membranes to a phosphorimager.
Inhibition was measured relative to control wells that contained all reaction components including 2% (v/v) DMSO but no compound, after subtraction of background radioactivity measured in the absence of enzyme. Apparent Ki values of discrete compounds were measured by assaying enzyme activity in the presence of different inhibitor compound concentrations and subtracting the background radioactivity measured in the absence of enzyme. The kinetic parameters (kcat, Km for ATP) were measured for each enzyme under the usual assay conditions by determining the dependence of initial rates on ATP concentration. Inhibition data were fit to an equation for competitive inhibition using Kaleidagraph (Synergy Software), or were fit to an equation for competitive tight-binding inhibition using the software KineTic (BioKin, Ltd.).
A complex of human CDK4 and genetically truncated (1-264) cyclin D3 was purified using traditional biochemical chromatographic techniques from insect cells that had been co-infected with the corresponding baculovirus expression vectors (see e.g., Meijer and Kim, “Chemical Inhibitors of Cyclin-Dependent Kinases,” Methods in Enzymol., 283, 113-128 (1997)). The enzyme complex (5 nM) was assayed with 0.3-0.5 μg of purified recombinant retinoblastoma protein fragment (Rb) as a substrate. The engineered Rb fragment (residues 386-928 of the native retinoblastoma protein; 62.3 kDa) contains the majority of the phosphorylation sites found in the native 106-kDa protein, as well as a tag of six histidine residues for ease of purification. Phosphorylated Rb substrate was captured by microfiltration on a nitrocellulose membrane and quantified using a phosphorimager as described above. For measurement of tight-binding inhibitors, the assay duration was extended to 60 minutes, during which the time-dependence of product formation was linear and initial rate conditions were met.

T1 sequence (P11802 whole entry): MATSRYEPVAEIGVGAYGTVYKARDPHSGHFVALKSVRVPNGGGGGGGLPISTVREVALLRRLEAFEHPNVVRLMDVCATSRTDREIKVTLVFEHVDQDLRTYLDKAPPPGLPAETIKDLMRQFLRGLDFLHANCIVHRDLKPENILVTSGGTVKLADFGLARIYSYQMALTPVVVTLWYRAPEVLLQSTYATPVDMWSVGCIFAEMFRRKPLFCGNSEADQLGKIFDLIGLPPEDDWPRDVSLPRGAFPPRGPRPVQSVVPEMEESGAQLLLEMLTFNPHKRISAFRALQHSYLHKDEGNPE
T1 sequence (P30281 1-264 partner limits assumed): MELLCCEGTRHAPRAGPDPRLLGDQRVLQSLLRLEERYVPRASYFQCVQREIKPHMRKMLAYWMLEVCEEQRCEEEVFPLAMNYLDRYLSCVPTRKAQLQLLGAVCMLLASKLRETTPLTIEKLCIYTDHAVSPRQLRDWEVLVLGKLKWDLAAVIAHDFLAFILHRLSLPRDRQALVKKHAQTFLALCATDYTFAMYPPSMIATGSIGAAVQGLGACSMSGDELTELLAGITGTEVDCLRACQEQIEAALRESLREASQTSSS

For the compound `CCCSc1ccc(Nc2nc(N)c(C(=O)c3c(Cl)cccc3Cl)s2)cc1` [DD(25)], the inhibition at 0.1 µM was 0.4%, the inhibition at 1 µM was found to be 65.5% and the inhibition at 0.03 µM is -10%.
`Nc1nc(Nc2cccc(SCC3CO3)c2)sc1C(=O)c1c(Cl)cccc1Cl` (stereo not shown) [DD(52)]: the inhibition at 0.1 µM turned out to be 34%, the inhibition at 1 µM is 74.9% and the inhibition at 0.03 µM was determined as 15%.
Taken in the same sequence, the figures for `CC(C)OC(=O)CSc1cccc(Nc2nc(N)c(C(=O)c3c(Cl)cccc3Cl)s2)c1` [DD(63)] were 29%, 46.6% and -3.8%.
As for `Nc1nc(Nc2ccc(S(=O)(=O)Cc3ccccc3)cc2)sc1C(=O)c1c(Cl)cccc1Cl` [DD(195)], the inhibition at 0.1 µM worked out at 25%, the inhibition at 1 µM is 22.3% and the inhibition at 0.03 µM turned out to be 3.8%.
The like results for `CC(C)OC(=O)CC[S+]([O-])c1cccc(Nc2nc(N)c(C(=O)c3c(Cl)cccc3Cl)s2)c1` (stereo not shown) [DD(158)] were, in that order, 27%, 35% and 22%.
Taken in the same sequence, the figures for `CN(c1ccc(S(=O)(=O)CC(O)CO)cc1)c1nc(N)c(C(=O)c2c(Cl)cccc2Cl)s1` (stereo not shown) [DD(234)] were 35%, 26.1% and 9.6%.
The like results for `CC1(CSc2ccc(Nc3nc(N)c(C(=O)c4c(Cl)cccc4Cl)s3)cc2)CO1` (stereo not shown) [DD(20)] were, in that order, 6.8%, 68.2% and 4.2%.
For the compound `CC(C)=CC[S+]([O-])c1cccc(Nc2nc(N)c(C(=O)c3c(Cl)cccc3Cl)s2)c1` (stereo not shown) [DD(144)], the inhibition at 0.1 µM was 12%, the inhibition at 1 µM was found to be 27.7% and the inhibition at 0.03 µM was -66%.
For `NC(=O)CCS(=O)(=O)c1ccc(Nc2nc(N)c(C(=O)c3c(Cl)cccc3Cl)s2)cc1` [DD(188)], the inhibition at 0.1 µM came to 35%, the inhibition at 1 µM was determined as 25.9% and the “% Inhib CDK4/D @ 0.03” value is on record as −11%.
On to `CC(C)CCOC(=O)CS(=O)(=O)c1ccc(Nc2nc(N)c(C(=O)c3c(Cl)cccc3Cl)s2)cc1` [DD(194)], for which the “% Inhib CDK4/D @ 0.1 μM” value is 32%, the “% Inhib CDK4/D @ 1 μM” value turned out to be 6.3% and the “% Inhib CDK4/D @ 0.03” value is given as −29%.
In the case of `CC(C)(CO)CSc1ccc(Nc2nc(N)c(C(=O)c3c(Cl)cccc3Cl)s2)cc1` [DD(40)], the inhibition at 0.1 µM stood at 23%, the inhibition at 1 µM was 50.3% and the inhibition at 0.03 µM was -1.2%.
Taken in the same sequence, the figures for `Nc1nc(Nc2ccc(SCC3CC3)cc2)sc1C(=O)c1c(Cl)cccc1Cl` [DD(16)] were -7%, 56.2% and -9.4%.
The like results for `COC(=O)/C=C/CSc1cccc(Nc2nc(N)c(C(=O)c3c(Cl)cccc3Cl)s2)c1` [DD(44)] were, in that order, 31%, 46% and 23%.
The like results for `Nc1nc(Nc2cccc([S+]([O-])CC3CO3)c2)sc1C(=O)c1c(Cl)cccc1Cl` (stereo not shown) [DD(132)] were, in that order, 64%, 62% and 44%.
Consider `CC(C)=CCSc1ccc(Nc2nc(N)c(C(=O)c3c(Cl)cccc3Cl)s2)cc1` [DD(24)], for which the inhibition at 0.1 µM was -3%, the inhibition at 1 µM was determined as 42.5% and the inhibition at 0.03 µM was -17%.
The like results for `Nc1nc(Nc2cccc(SCc3ncon3)c2)sc1C(=O)c1c(Cl)cccc1Cl` [DD(48)] were, in that order, 36%, 52.2% and 26%.
Taken in the same sequence, the figures for `CC(=O)OCCSc1cccc(Nc2nc(N)c(C(=O)c3c(Cl)cccc3Cl)s2)c1` [DD(77)] were 30%, 71.9% and 23%.
On to `Nc1nc(Nc2ccc([S+]([O-])CCN3CCCC3)cc2)sc1C(=O)c1c(Cl)cccc1Cl` (stereo not shown) [DD(87)], for which the inhibition at 0.1 µM is 29%, the inhibition at 1 µM was 68.2% and the inhibition at 0.03 µM is -16%.
Taken in the same sequence, the figures for `CC1(C[S+]([O-])c2ccc(Nc3nc(N)c(C(=O)c4c(Cl)cccc4Cl)s3)cc2)CO1` (stereo not shown) [DD(100)] were 33%, 63.7% and 7.1%.
`CC(C)CCS(=O)(=O)c1ccc(Nc2nc(N)c(C(=O)c3c(Cl)cccc3Cl)s2)cc1` [DD(173)]: the inhibition at 0.1 µM worked out at 17%, the “% Inhib CDK4/D @ 1 μM” value stood at 14.5% and the “% Inhib CDK4/D @ 0.03” value is listed as −11%.
Consider `CC(C)OC(=O)CS(=O)(=O)c1ccc(Nc2nc(N)c(C(=O)c3c(Cl)cccc3Cl)s2)cc1` [DD(183)], for which the “% Inhib CDK4/D @ 0.1 μM” value is recorded as 17%, the “% Inhib CDK4/D @ 1 μM” value was found to be 1.9% and the “% Inhib CDK4/D @ 0.03” value worked out at 8.6%.
Regarding `CC(C)=CCSc1cccc(Nc2nc(N)c(C(=O)c3c(Cl)cccc3Cl)s2)c1` [DD(64)], the inhibition at 0.1 µM turned out to be 27%, the inhibition at 1 µM came to 22.1% and the inhibition at 0.03 µM was -11%.
On to `C=CCCS(=O)(=O)c1ccc(Nc2nc(N)c(C(=O)c3c(Cl)cccc3Cl)s2)cc1` [DD(206)], for which the “% Inhib CDK4/D @ 0.1 μM” value was 24%, the “% Inhib CDK4/D @ 1 μM” value is listed as 47.3% and the “% Inhib CDK4/D @ 0.03” value is given as −11%.
`CN(C)CC[S+]([O-])c1cccc(Nc2nc(N)c(C(=O)c3c(Cl)cccc3Cl)s2)c1` (stereo not shown) [DD(152)]: the inhibition at 0.1 µM amounted to 28%, the inhibition at 1 µM was determined as 57.3% and the inhibition at 0.03 µM amounted to 21%.
Consider `Nc1nc(Nc2ccc(Sc3ccncc3)cc2)sc1C(=O)c1c(Cl)cccc1Cl` [W(1), 4-Amino-5-(2,6-dichloro-benzoyl)-2-[4-(pyridin-4-ylthio)-phenylamino]-thiazole], for which, where the note is “apparent Ki, Rb fragment substrate”, the Ki turned out to be 89 nM.
Take `Nc1nc(Nc2cccc(SCC3CNC(=O)O3)c2)sc1C(=O)c1c(Cl)cccc1Cl` (stereo not shown) [DD(49)]: the inhibition at 0.1 µM turned out to be 19%, the inhibition at 1 µM is 54.2% and the inhibition at 0.03 µM was 12%.
The like results for `CC(C)OC(=O)CCSc1cccc(Nc2nc(N)c(C(=O)c3c(Cl)cccc3Cl)s2)c1` [DD(78)] were, in that order, 22%, 36.2% and 13%.
The like results for `CCC(CC)C[S+]([O-])c1cccc(Nc2nc(N)c(C(=O)c3c(Cl)cccc3Cl)s2)c1` (stereo not shown) [DD(156)] were, in that order, 25%, 15.1% and 17%.
`CCOC(=O)CCS(=O)(=O)c1ccc(Nc2nc(N)c(C(=O)c3c(Cl)cccc3Cl)s2)cc1` [DD(182))]: the “% Inhib CDK4/D @ 0.1 μM” value turned out to be 17%, the “% Inhib CDK4/D @ 1 μM” value is given as 5.4% and the “% Inhib CDK4/D @ 0.03” value is −12%.
Regarding `NC(=O)CCS(=O)(=O)c1ccc(Nc2nc(N)c(C(=O)c3c(Cl)cccc3Cl)s2)cc1` [DD(228)], the “% Inhib CDK4/D @ 0.1 μM” value came out at 29%, the “% Inhib CDK4/D @ 1 μM” value is listed as 43% and the “% Inhib CDK4/D @ 0.03” value is 1%.
The like results for `Nc1nc(Nc2ccc(S(=O)(=O)CC3CO3)cc2)sc1C(=O)c1c(Cl)cccc1Cl` (stereo not shown) [DD(212)] were, in that order, 17%, −14% and −16%.
With `CC(C)CCOC(=O)CS(=O)(=O)c1ccc(N(C)c2nc(N)c(C(=O)c3c(Cl)cccc3Cl)s2)cc1` [DD(231)], the inhibition at 0.1 µM is 27%, the inhibition at 1 µM was found to be 33.3% and the inhibition at 0.03 µM was -1.8%.
The like results for `CN1CCCC(C[S+]([O-])c2cccc(Nc3nc(N)c(C(=O)c4c(Cl)cccc4Cl)s3)c2)C1` (stereo not shown) [DD(147)] were, in that order, 38%, 39.6% and 19%.
The like results for `CC(C)CCSc1ccc(Nc2nc(N)c(C(=O)c3c(Cl)cccc3Cl)s2)cc1` [DD(13)] were, in that order, 4.7%, 35.3% and 0.6%.

(Values after patent publication US20040176431A1, “Antiproliferative 2-(sulfo-phenyl)-aminothiazole derivatives and pharmaceutical compositions, and methods for their use” (Pfizer, Inc., priority 2003, published 2004).)
